Patent publication US10967035B1, “Aquaculture feed additive” (HP Ingredients Corp., priority 2020, dated 2021)

What was measured:
IL-12 = assay: RT-qPCR of IL-12 expression in anterior kidney of fish fed supplemented diets; format: in vivo, rainbow trout; details: diet 15 days; NC 0.5 kg/ton, AP 1 kg/ton of feed
Method: (§1) We compared several aquaculture diets suitable for use in commercial aquaculture. The standard diet was […] commercially available from Salmones […]., Los Angeles, Chile. […] Each diet was administered to each of three (3) cages for 15 days. […] We extracted total RNA from each sample, and then quantified the expression of IL-12 and CD8^+ using real-time quantitative PCR, according to the standardized protocols of the Aquatic Organisms Biotechnology Lab of the Universidad Austral de Chile.

CD8+ = assay: RT-qPCR of CD8+ expression in anterior kidney of fish fed supplemented diets; format: in vivo, rainbow trout; details: diet 15 days
Method: as §1

[1] = test system: Piscirickettsia salmonis strain type LF-89; format: cell-based

Compound | IL-12 expression in anterior kidney compared to control group (IL-12) | CD8+ expression in anterior kidney compared to control group (CD8+; NC 0.5 kg/ton, AP 1 kg/ton of feed) | stimulation of the immune activity markers compared to control (CD8+; in vivo pilot test) | inhibitory effect on bacterial growth ([1]; at the analyzed concentrations (0.98 to 500)) | mean inhibition in bacterial growth ([1]; 64, 32 and 16 μg/mL)
C=C1CC[C@@H]2[C@](C)(CO)[C@H](O)CC[C@@]2(C)[C@@H]1C/C=C1/C(=O)OC[C@H]1O [AP, andrographolide] | depress the expression of IL-12 | increase the expression of CD8+ | 2.0 | no significant differences in the inhibitory effect | 
CS(=O)(=O)c1ccc([C@@H](O)[C@@H](CF)NC(=O)C(Cl)Cl)cc1 [florfenicol] |  |  |  |  | 5 fold
